The subject of data set [1] is MDA-MB-231 breast cancer cells. More on the design: method as in doi:10.1021/acsomega.8b02849, PMID 31241925. The conditions noted are these: positive control; ref [44], [45]; cited from earlier work.
The test system of data set [2] is MCF-7 breast cancer cells. On the set-up: method as in doi:10.1021/acsomega.8b02849, PMID 31241925. The settings on record: positive control; ref [44], [45]; cited from earlier work.
The test system of data set [3] is normal human fibroblasts (HDF). On the set-up: method as in doi:10.1021/acsomega.8b02849, PMID 31241925. The conditions noted are these: positive control; ref [44], [45]; cited from earlier work.
Data set [4] concerns MDA-MB-231 breast cancer cells. Briefly: MTT cytotoxicity assay, MDA-MB-231 cells. Format: cell-based, human. The settings on record: 24 h incubation, MTT, average of at least three experiments (±SD). The protocol:
(§1) The MDA-MB-231 and MCF-7 human breast cancer cells were purchased from ATCC. The MDA-MB-231 and MCF-7 cells were grown in Dulbecco's modified Eagles' medium (DMEM high glucose) (Capricorn Scientific) at 37°C in 5% CO2 supplemented with 10% fetal bovine serum (Capricorn Scientific). HDF cells were purchased from Merck and were grown in the fibroblast growth medium. All cells were adherent in monolayers and, upon confluence, were washed with phosphate buffer saline (PBS) and harvested by digestion with trypsin-EDTA 0.05% (v/v). The cells were suspended and transferred into new, sterile, culture flasks for maintenance or seeded in sterile test microplates for different assays. All cells were manipulated under aseptic conditions in a flow chamber.
(§2) The cells were adherent in monolayers and, upon confluence, were harvested by digestion with trypsin. The cytotoxicity of the complexes against the tumour cells was assessed using the colorimetric assay MTT […], which evaluates the metabolic activity of viable cells. This assay measures the conversion of yellow tetrazolium into purple formazan by an active mitochondrial dehydrogenase in living cells. For this purpose, the cells (10–20 × 10^3 in 200 μL of the medium) were seeded into 96-well plates and incubated in a 5% CO2 incubator at 37°C. The cells were settled for 24 h followed by the addition of a dilution series of the complexes in a medium (200 μL). The complexes were first solubilized in 100% DMSO, given a 10 mM stock solution, and then in a medium within the concentration range of 0.1–100 µM. […] After 24 h of incubation, the treatment solutions were removed by aspiration, and MTT solution (200 μL, 0.5 mg·mL^−1 in PBS) was added to each well. After 3 h at 37°C/5% CO2, the solution was removed, and the purple formazan crystals formed inside the cells were dissolved in DMSO (200 μL) by thorough shaking. The cellular viability was evaluated by measuring the absorbance at 570 nm by using a microplate spectrophotometer. The IC50 values were obtained by dose-response curves using the GraphPad Prism software (vs. 5).
The MDA-MB-231 and MCF-7 human breast cancer cells were purchased from ATCC. MDA-MB-231 and MCF-7 cells were grown in Dulbecco’s modified Eagles’s medium (DMEM high glucose) (Capricorn Scientific) at 37 °C in 5% CO2 supplemented with 10% fetal bovine serum (Capricorn Scientific). All cells were adherent in monolayers and, upon confluence, were washed with phosphate buffer saline (PBS) and harvested by digestion with Trypsin-EDTA 0.05% (v/v). The cells were suspended and transferred into new, sterile, culture flasks, for maintenance or seeded in sterile test microplates for different assays. All cells were manipulated under aseptic conditions in a flow chamber.
The cells were adherent in monolayers and, upon confluency, were harvested by digestion with trypsin. The cytotoxicity of the complexes against the tumour cells was assessed using the colorimetric assay MTT […], which evaluate the metabolic activity of viable cells. This assay measures the conversion of the yellow tetrazolium into purple formazan by an active mitochondrial dehydrogenase in living cells. For this purpose, cells (10-20 × 10^3 in 200 μL of medium) were seeded into 96-well plates and incubated in a 5% CO2 incubator at 37 °C. The cells were settled for 24 h followed by the addition of a dilution series of the complexes in medium (200 μL). The complexes were first solubilized in 100% DMSO, given a 10 mM stock solution, and then in medium within the concentration range of 0.1–100 µM. […] After 24 h of incubation, the treatment solutions were removed by aspiration, and MTT solution (200 μL, 0.5 mg·mL^-1 in PBS) was added to each well. After 3 h at 37 °C/5% CO2, the solution was removed, and the purple formazan crystals formed inside the cells were dissolved in DMSO (200 μL) by thorough shaking. […]
(Formazan colour is commonly taken as a measure of viable cells.)

Data set [5] relates to MCF-7 breast cancer cells. The data set is described as follows: MTT cytotoxicity assay, MCF-7 cells. The class given is cell-based, human. The settings on record: 24 h incubation, average of at least three experiments (±SD). The protocol:
as §1
The cells were adherent in monolayers and, upon confluence, were harvested by digestion with trypsin. The cytotoxicity of the complexes against the tumour cells was assessed using the colorimetric assay MTT […], which evaluates the metabolic activity of viable cells. This assay measures the conversion of yellow tetrazolium into purple formazan by an active mitochondrial dehydrogenase in living cells. For this purpose, the cells (10–20 × 10^3 in 200 μL of the medium) were seeded into 96-well plates and incubated in a 5% CO2 incubator at 37°C. The cells were settled for 24 h followed by the addition of a dilution series of the complexes in a medium (200 μL). The complexes were first solubilized in 100% DMSO, given a 10 mM stock solution, and then in a medium within the concentration range of 0.1–100 µM. […] The cellular viability was evaluated by measuring the absorbance at 570 nm by using a microplate spectrophotometer. […]
The cells were adherent in monolayers and, upon confluency, were harvested by digestion with trypsin. The cytotoxicity of the complexes against the tumour cells was assessed using the colorimetric assay MTT […], which evaluate the metabolic activity of viable cells. […]

The test system of data set [6] is normal human fibroblasts (HDF). The data set is described as follows: MTT cytotoxicity assay, normal human dermal fibroblasts. The class given is cell-based. The protocol:
as §1, §2

Data set [7] concerns the target human serum albumin (HSA) (Homo sapiens, UniProt P02768). Briefly: Binding to human serum albumin by steady-state and time-resolved Trp214 fluorescence. The protocol: The stock solutions of HSA were freshly prepared for each experiment by gently dissolving protein in PBS pH 7.4 (tablets from Fisher) for 1 hour to allow protein to completely hydrate. The concentration of the protein in the stock solutions was determined by spectrophotometry using the molar absorption coefficient at 280 nm ε280(HSA) = 36,850 M^−1·cm^−1 [38].
In each essay, all spectroscopic measurements were carried out on individually prepared samples to ensure the same preincubation time at (37.0 ± 0.1)°C, the same % of DMSO in the final samples, and the same exposure to excitation light and to avoid the need for dilution corrections. Moreover, for a direct titration protocol, a highly concentrated stock solution of the compounds in the buffer would be required, which would raise solubility issues. Dimethylsulfoxide (DMSO, from Fisher) was used to prepare concentrated stock solutions of each complex, followed by appropriate dilution to obtain the desired concentration. The DMSO content was kept at 2% (v/v) in PBS pH 7.4 in all samples. Dilutions were carried out immediately before sample preparation.
Fluorescence measurements were performed at 25.0 ± 0.1°C. The final protein concentration in the individually prepared samples (3.72 to 5 μM) was kept constant in each assay, and the complex concentration was varied to obtain desired HSA: Ru-complex molar ratios ranging from 1 : 0.25 to 1 : 10. A control sample containing the same amount of protein and final DMSO content and with no complex was also prepared for each experiment. Appropriate blank samples with no protein but with the same complex concentrations were prepared as well for background correction.
The steady-state fluorescence intensity was measured with excitation at 295 nm, and emission spectra were collected with bandwidths of 4 nm for both excitation and emission. For Stern–Volmer plots, the fluorescence intensity with emission at 340 nm was selected because it is near the maximum emission wavelength (so the sensitivity is close to maximum), but it is further to red in relation to the water Raman scattering peak. These values were corrected for the absorption and emission inner filter effects using the absorbance recorded for each sample at the excitation and emission wavelengths used for the steady-state quenching analysis. For time-resolved fluorescence measurements, the single-photon-counting technique was used with nanoLED N-280 (Horiba Jobin Yvon) as the pulsed excitation source (280 nm) and with emission collected at 350 nm (13 nm emission bandwidth), eliminating the contribution of the emission by tyrosine residues.
The experimental fluorescence intensity decays of HSA in buffer solution can be described by a sum of exponentials:(1) It=∑i=1npiexp−t/τi, where pi and τi are the pre-exponential factors and lifetime of component i, respectively. The amplitude or normalized pre-exponential of each lifetime component αi is pi/Σipi with Σiαi = 1. Fluorescence decays were analysed by an iterative deconvolution method using the TRFA Data Processor software (version 1.4; Minsk, Belarus), and the instrument response function was obtained using scattering by a colloidal suspension of silica (Ludox®, Sigma-Aldrich) diluted in water. Criteria for judging the quality of the fit were reduced χ^2 close to 1 and a random distribution of weighted residuals and residual autocorrelation.
To evaluate changes in the quantum yield by processes affecting the fluorescence lifetimes of HSA, the amplitude-weighted mean fluorescence lifetime ( τ¯ ) was calculated using the following equation:(2) τ¯=∑i=1nαiτi.
The stock solutions of HSA were freshly prepared for each experiment by gently dissolving the protein in PBS pH 7.4 (tablets from Fisher) for 1 hour to allow the protein to completely hydrate. The concentration of protein in the stock solutions was determined by spectrophotometry using the molar absorption coefficient at 280 nm ε280(HSA) = 36,850 M^−1 cm^−1.[8] […]

Like-named read-outs stand apart in the source and are kept apart here.

Sequence of human serum albumin (HSA) (P02768 25-609): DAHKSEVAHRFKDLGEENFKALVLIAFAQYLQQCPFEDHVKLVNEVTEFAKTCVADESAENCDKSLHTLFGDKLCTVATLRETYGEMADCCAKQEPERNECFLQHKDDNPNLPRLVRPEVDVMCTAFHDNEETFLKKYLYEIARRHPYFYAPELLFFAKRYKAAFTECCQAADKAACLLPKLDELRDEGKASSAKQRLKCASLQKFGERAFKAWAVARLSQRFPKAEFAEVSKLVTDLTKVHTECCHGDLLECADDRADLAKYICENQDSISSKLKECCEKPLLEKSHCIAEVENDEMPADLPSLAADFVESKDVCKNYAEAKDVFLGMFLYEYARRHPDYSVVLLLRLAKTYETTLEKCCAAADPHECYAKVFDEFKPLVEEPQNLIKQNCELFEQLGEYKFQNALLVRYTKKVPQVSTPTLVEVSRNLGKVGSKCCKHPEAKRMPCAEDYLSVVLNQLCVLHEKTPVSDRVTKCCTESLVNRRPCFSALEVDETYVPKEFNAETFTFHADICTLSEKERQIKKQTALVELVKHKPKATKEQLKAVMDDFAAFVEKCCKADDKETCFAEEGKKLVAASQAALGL

For orientation: IC50 means the concentration that gives 50% inhibition. As to `N.N.[Cl][Pt][Cl]` [Cisplatin, cis-[PtCl2(NH3)2]], the IC50 is above 100000 nM in data set [1], 38000 ± 1400 nM in data set [2] and around 100000 nM in data set [3].

`CN1CN2CN(C)C[P]([Ru+2]([P](c3ccccc3)(c3ccccc3)c3ccccc3)[P](c3ccccc3)(c3ccccc3)c3ccccc3)(C1)C2.O=S(=O)([O-])C(F)(F)F.c1cc[cH-]c1` [Compound 10, [RuCp(dmoPTA)(PPh3)2](CF3SO3)]: the IC50 in data set [4] is 840 ± 90 nM; in data set [5] it was 400 ± 40 nM; in data set [6] (24 h incubation, MTT, normal human fibroblasts), 1470 ± 400 nM. In addition, the “Fold less cytotoxic for fibroblasts (HDF) than for MCF-7 cells” value in data set [6] (selectivity HDF vs MCF-7) is given as 2-3 fold. Also, the “Fold less cytotoxic for fibroblasts (HDF) than for MDA-MB-231 cells” value in data set [6] (selectivity HDF vs MDA-MB-231) is recorded as 1.5 fold. For the same molecule, in data set [7] (20 µM compound (1:4 HSA:compound), 24 h, λem 340 nm), the “Emission intensity of Trp214 relative to value in the absence of compound” value is around 75%. Moreover, in data set [7] (HSA-Trp214 fluorescence), the Type of quenching entry is reported as “Static”. Further, in data set [7] (steady-state emission, 24 h incubation), the “Spectral shift of Trp214 emission” value is recorded as “do not induce any spectral shift”. For the same molecule, the “Effect on amplitude-weighted mean fluorescence lifetime of HSA-Trp214” value in data set [7] (time-resolved fluorescence, λem 350 nm) was “does not affect”.

Values taken from article PMC10555500, “Evaluation of the Antiproliferative Properties of CpRu Complexes Containing N-Methylated Triazaphosphaadamantane Derivatives” (Bioinorganic Chemistry and Applications, 2023).
